Assay results: ChEMBL document CHEMBL1201862, “PubChem BioAssay data set” (2004)
Calls of active or inactive are those of the source.

Legend:
X-box-binding protein 1 = X-box-binding protein 1 (Homo sapiens, UniProt P17861); type: functional, Cricetulus griseus;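 also: confirmatory dose-response counter-screen serving a CHOP assay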
[1] = human group III sPLA2 inhibitors, dose response, biochemical, QFRET, IC50 (AID 743457);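 also: green fluorescence rise as the enzyme cleaves BODIPY PC-A2 in liposomes; potency for inhibition of the enzyme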
[2] = Luminescence Cell-Based Dose Response HTS to Identify Inhibitors of 5'UTR Stem-Loop Driven Prion Protein mRNA Translation in H4 Neuroglioblastoma Cells. [Related pubchem assays: 1827 (Project Summary), 1813 (Primary HTS)]; type: functional
[3] = inhibitors of SNCA 5'UTR-driven reporter translation, confirmation, H4 neuroglioma cells, luminescence (AID 1988); type: functional, cell-based
BJ [4] = assay: cytotoxicity toward BJ-TERT-LT-ST fibroblasts, dose response, cell-based, RAS-independent, luminescence (AID 1935); type: functional; settings: Homo sapiens;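 also: BJ fibroblasts immortalized with TERT plus LT and ST oncogenes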
BJ [5] = assay: cells; type: functional, cell-based; settings: Homo sapiens
BJ [6] = assay: cytotoxicity toward BJ-TERT fibroblasts, dose response, cell-based, RAS-independent, luminescence (AID 1933); type: functional; settings: Homo sapiens
J774.A1 = assay: Confirmation of image-based Screening Assay for Inhibitors of Phagocytosis. [Related pubchem assays (depositor defined):AID1029, AID1643]; type: functional, cell-based; settings: Mus musculus
[7] = cytotoxicity toward DRD oncogenic fibroblasts, dose response, cell-based, non-viral oncogenic, luminescence (AID 1934); type: functional; settings: Homo sapiens
[8] = target: T1, Heat shock factor protein 1 (Mus musculus, UniProt P38532); assay: inhibition of MG132-induced HSE-luciferase signal, confirmation, cell-based, NIH3T3, luminescence, dose retest (AID 2382); type: functional;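 also: NIH3T3 fibroblasts with HSF1-driven luciferase reporter stressed by proteasome inhibitor MG132; luminescence from HSF1-driven luciferase expression after 8 hours of MG132 stress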
T1 sequence (P38532 whole entry): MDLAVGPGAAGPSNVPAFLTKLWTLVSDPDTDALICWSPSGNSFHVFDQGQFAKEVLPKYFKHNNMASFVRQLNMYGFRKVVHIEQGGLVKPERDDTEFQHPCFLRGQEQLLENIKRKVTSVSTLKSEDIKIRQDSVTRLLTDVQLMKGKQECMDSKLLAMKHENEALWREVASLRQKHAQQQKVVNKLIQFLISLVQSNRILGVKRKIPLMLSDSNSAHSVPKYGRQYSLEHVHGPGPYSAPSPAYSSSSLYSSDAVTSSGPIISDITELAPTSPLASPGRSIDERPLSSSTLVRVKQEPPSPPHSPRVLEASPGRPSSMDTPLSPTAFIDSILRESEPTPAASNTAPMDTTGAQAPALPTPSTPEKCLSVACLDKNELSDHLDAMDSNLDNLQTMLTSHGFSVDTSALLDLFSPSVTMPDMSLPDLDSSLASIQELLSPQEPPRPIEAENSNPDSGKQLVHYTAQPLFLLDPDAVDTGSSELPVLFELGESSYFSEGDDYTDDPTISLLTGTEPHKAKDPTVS

[9] = inhibitors of firefly luciferase expression or activity, dose response, H4 neuroglioma cells, luminescence (AID 1990); type: functional, cell-based
[10] = target: Neurotensin receptor type 1 (Homo sapiens, UniProt P30989); type: functional;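 also: Image-based confirmatory dose-response assay measuring agonist activity at NTR1; NTR1-expressing U2OS osteosarcoma cells imaged for beta-arrestin GFP spot formation; agonist potency where compounds increase beta-arrestin recruitment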
[11] = HepG2 cell cytotoxicity, dose response, cytotoxicity control for Shn3 inhibitor project, CellTiter-Glo, cherry-picked (AID 624134); type: functional, cell-based
[12] = control 3'UTR Renilla luciferase suppression, dose response, counter-screen for Shn3 inhibitor project, cell-based, Clone20-Shn3RL, cherry-picked (AID 624133); type: functional
[13] = Shn3 3'UTR reporter inhibitors, dose response, cell-based, Clone20 osteoblasts, firefly luciferase, cherry-picked (AID 624132); type: functional;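 also: firefly luciferase luminescence from reporter carrying the Shn3 3'UTR in osteoblasts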
[14] = target: T2, Replicative DNA helicase DnaB (Mycobacterium tuberculosis, UniProt P9WMR3); assay: DnaB intein splicing inhibitors, dose response, biochemical, cell-free fluorescence (AID 449749); type: functional
T2 sequence (P9WMR3 whole entry): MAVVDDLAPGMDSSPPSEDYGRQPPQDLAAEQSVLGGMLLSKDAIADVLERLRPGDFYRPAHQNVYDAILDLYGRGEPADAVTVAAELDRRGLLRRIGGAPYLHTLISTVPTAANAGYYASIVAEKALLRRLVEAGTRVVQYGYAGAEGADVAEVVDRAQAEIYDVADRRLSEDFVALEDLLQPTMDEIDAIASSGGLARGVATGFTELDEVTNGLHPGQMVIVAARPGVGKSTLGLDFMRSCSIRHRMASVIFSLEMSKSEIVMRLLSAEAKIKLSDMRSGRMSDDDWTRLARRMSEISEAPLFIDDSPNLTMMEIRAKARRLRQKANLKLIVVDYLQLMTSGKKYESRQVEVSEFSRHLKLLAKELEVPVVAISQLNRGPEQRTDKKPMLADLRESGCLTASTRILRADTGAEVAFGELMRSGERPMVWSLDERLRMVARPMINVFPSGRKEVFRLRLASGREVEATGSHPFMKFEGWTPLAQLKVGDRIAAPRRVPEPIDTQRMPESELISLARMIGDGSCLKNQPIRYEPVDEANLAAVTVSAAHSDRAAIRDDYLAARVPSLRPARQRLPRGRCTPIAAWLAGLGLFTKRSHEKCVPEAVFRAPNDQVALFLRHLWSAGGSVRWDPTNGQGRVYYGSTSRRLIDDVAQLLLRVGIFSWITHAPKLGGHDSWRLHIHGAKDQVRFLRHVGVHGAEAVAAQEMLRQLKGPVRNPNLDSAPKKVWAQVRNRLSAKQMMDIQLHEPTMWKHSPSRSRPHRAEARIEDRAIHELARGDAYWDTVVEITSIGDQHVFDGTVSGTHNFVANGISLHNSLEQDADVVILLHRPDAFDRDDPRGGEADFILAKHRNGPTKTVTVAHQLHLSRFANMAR

Protein RecA = target: T3, Protein RecA (Mycobacterium tuberculosis, UniProt P9WHJ3); assay: Fluorescence Cell-Free Homogeneous Dose Retest to Identify Inhibitors of RecA-Intein Splicing Activity. [Related pubchem assays (depositor defined):AID2097, AID2223, AID489010, AID492950]; type: functional
T3 sequence (P9WHJ3 whole entry): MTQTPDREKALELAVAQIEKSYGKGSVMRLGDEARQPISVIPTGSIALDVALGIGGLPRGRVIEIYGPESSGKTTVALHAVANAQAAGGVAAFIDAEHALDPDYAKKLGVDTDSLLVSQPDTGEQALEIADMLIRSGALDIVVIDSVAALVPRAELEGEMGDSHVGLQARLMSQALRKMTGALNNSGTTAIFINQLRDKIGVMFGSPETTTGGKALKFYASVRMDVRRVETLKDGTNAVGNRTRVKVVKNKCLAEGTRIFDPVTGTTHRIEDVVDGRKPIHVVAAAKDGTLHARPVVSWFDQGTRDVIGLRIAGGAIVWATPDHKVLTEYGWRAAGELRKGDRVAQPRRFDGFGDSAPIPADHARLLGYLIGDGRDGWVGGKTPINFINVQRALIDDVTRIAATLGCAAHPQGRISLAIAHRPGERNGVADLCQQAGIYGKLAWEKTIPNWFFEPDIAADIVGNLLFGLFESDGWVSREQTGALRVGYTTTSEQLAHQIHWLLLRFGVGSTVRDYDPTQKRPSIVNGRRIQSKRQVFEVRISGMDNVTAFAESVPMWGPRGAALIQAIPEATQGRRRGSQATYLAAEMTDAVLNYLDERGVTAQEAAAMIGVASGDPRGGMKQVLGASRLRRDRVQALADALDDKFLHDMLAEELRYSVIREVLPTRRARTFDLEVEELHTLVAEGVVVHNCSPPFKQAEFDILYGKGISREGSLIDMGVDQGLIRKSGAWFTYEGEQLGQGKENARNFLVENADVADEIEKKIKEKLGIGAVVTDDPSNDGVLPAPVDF

[15] = target: Disintegrin and metalloproteinase domain-containing protein 17 (Homo sapiens, UniProt P78536); assay: exosite inhibitors of ADAM17, dose response, biochemical (AID 743260)
Vero = Vero cell cytotoxicity, cytotoxicity control for flavivirus capping enzyme inhibitors (AID 588742); type: functional; settings: Chlorocebus sabaeus
NS3 = NS3 (Hepatitis C virus, UniProt A3EZJ3); assay: PubChem AID 2173; set-up: species or system Hepacivirus hominis
H9c2 = assay: cells; type: functional, cell-based; settings: Rattus norvegicus, H9c2, Myocardium;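 also: confirmatory concentration-response retest of ultra-high-throughput screening hits for modulation of myocardial damage; cell death induced by hydrogen peroxide oxidative stress; compound pretreatment for 60 min then peroxide exposure for 2 h; potency is for protecting the cells against peroxide damage rather than for killing them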
[16] = ADAM10 protease inhibitors, dose response, selectivity assay for ADAM17 exosite inhibitor project, biochemical, FRET peptide substrate, recombinant human ADAM10 (AID 743259);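 also: ADAM10 enzyme cleaving a FRET peptide substrate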
SUMO-activating enzyme [17] = target: T4, SUMO-activating enzyme (Homo sapiens, UniProt Q9UBT2); assay: SUMOylation inhibitor hit validation, confirmation, SUMOylation inhibitor project, biochemical, AlphaScreen (AID 2018); type: functional
SUMO-activating enzyme [18] = target: T4, SUMO-activating enzyme; assay: inhibitors of in vitro SUMOylation cascade, primary screen, biochemical, HTRF, uHTS (AID 2006); type: protein-complex assay
[19] = target: T5, Histone-lysine N-methyltransferase NSD2 (Homo sapiens, UniProt O96028); type: biochemical
T5 sequence (O96028 whole entry): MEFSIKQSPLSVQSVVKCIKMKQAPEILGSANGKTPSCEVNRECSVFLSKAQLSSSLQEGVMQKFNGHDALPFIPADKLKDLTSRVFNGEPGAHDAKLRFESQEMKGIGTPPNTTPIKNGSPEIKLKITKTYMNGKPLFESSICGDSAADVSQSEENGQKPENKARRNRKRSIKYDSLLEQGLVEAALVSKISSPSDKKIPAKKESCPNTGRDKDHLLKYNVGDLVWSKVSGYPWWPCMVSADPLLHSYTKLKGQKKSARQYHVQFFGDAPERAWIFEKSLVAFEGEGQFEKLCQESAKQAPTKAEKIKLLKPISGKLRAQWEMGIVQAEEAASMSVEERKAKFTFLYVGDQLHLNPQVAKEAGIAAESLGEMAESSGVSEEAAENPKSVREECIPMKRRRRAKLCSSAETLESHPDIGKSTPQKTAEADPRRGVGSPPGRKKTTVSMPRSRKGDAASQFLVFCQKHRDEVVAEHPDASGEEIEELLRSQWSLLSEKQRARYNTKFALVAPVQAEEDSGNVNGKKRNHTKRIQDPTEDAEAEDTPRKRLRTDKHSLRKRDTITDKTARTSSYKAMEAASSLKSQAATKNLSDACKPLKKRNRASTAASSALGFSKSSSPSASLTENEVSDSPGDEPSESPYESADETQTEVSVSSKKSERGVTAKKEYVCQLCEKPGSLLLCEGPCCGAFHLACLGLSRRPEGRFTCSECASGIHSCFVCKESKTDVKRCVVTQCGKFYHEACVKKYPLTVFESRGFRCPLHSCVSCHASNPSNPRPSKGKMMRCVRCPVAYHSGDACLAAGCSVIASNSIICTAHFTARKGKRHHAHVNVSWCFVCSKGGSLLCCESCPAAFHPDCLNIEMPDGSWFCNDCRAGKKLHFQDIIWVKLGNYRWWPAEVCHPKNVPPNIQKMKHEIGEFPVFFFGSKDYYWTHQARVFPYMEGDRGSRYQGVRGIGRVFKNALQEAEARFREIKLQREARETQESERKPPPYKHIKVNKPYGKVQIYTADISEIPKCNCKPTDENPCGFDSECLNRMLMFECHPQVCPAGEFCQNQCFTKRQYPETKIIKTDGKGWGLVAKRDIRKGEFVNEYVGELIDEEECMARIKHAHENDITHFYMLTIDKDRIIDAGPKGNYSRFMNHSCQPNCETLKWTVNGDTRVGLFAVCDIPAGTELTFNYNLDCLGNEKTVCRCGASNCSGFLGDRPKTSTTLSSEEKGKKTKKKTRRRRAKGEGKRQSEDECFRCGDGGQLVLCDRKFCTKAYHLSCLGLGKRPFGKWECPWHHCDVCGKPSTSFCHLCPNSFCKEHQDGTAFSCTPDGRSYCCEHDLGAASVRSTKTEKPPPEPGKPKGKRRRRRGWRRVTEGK

[20] = target: Eukaryotic translation initiation factor 4H (Homo sapiens, UniProt Q15056); assay: human eIF4H binding inhibitors, primary screen, translation initiation inhibitor project, biochemical, uHTS, fluorescence polarization (AID 2012)
[21] = target: Polyadenylate-binding protein 1 (Homo sapiens, UniProt P11940); assay: PABP poly(A) RNA binding inhibitors, primary screen, biochemical, fluorescence polarization, uHTS (AID 2014)
Sequence of Polyadenylate-binding protein 1 (P11940 whole entry): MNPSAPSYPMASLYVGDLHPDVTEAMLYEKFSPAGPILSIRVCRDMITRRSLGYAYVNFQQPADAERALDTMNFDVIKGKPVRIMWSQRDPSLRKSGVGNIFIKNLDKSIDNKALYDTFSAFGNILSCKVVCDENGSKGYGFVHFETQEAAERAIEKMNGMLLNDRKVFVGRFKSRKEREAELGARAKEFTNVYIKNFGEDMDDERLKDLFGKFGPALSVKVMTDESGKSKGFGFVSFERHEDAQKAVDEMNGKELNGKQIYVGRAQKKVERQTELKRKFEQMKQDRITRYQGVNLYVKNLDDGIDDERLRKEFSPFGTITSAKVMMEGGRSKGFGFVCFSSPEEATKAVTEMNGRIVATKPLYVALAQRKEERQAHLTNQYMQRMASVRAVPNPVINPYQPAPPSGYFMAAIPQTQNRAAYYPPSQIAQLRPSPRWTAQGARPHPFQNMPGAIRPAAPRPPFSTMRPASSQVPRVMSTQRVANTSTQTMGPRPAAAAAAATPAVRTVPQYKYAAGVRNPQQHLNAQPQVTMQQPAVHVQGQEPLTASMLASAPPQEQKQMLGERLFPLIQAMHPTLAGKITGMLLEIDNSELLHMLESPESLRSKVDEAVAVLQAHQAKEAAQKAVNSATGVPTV

T4 sequence (Q9UBE0 whole entry): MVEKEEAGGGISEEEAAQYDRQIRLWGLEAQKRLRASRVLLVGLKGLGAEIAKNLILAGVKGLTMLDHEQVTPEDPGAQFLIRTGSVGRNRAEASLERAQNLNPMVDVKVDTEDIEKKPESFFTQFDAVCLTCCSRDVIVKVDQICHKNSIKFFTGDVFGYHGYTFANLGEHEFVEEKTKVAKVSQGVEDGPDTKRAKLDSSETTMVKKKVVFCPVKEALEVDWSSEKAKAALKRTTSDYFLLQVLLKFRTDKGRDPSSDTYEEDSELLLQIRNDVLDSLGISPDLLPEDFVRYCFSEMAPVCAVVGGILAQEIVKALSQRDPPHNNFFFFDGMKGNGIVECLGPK
T4 sequence (Q9UBT2 whole entry): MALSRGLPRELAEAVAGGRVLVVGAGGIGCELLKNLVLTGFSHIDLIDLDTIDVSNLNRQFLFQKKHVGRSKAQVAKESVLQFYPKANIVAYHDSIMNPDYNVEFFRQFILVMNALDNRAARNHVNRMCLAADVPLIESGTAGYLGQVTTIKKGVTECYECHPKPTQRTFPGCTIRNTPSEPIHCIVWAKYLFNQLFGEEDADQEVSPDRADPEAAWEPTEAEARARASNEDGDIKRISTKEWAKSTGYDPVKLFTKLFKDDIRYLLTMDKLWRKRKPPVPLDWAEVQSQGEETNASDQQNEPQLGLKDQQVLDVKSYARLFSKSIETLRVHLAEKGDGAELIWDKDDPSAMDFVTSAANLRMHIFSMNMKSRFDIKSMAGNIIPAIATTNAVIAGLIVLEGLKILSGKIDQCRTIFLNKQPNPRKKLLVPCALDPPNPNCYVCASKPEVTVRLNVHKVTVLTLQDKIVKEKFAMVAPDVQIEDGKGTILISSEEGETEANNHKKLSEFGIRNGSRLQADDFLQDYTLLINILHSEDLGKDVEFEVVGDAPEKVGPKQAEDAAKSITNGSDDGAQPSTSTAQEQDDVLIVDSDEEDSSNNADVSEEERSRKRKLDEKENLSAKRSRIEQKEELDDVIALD
Sequence of NS3 (A3EZJ3 whole entry): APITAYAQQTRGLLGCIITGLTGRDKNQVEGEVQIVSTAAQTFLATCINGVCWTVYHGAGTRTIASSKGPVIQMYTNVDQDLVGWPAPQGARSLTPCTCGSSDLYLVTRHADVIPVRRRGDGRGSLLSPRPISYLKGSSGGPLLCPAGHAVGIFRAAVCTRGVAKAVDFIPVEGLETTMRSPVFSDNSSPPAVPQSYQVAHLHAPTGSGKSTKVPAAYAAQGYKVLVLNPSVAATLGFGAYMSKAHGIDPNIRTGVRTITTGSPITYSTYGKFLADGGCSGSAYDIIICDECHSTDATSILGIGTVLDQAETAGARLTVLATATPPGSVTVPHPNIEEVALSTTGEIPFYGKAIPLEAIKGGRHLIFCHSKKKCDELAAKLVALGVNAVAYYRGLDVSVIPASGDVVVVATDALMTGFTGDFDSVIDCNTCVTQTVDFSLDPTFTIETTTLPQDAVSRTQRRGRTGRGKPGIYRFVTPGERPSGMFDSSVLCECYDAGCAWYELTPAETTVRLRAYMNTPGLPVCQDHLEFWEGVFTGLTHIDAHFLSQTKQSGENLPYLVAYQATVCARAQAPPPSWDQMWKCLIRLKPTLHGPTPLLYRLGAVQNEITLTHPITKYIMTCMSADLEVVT
Sequence of Disintegrin and metalloproteinase domain-containing protein 17 (P78536 whole entry, the tested form may be a part): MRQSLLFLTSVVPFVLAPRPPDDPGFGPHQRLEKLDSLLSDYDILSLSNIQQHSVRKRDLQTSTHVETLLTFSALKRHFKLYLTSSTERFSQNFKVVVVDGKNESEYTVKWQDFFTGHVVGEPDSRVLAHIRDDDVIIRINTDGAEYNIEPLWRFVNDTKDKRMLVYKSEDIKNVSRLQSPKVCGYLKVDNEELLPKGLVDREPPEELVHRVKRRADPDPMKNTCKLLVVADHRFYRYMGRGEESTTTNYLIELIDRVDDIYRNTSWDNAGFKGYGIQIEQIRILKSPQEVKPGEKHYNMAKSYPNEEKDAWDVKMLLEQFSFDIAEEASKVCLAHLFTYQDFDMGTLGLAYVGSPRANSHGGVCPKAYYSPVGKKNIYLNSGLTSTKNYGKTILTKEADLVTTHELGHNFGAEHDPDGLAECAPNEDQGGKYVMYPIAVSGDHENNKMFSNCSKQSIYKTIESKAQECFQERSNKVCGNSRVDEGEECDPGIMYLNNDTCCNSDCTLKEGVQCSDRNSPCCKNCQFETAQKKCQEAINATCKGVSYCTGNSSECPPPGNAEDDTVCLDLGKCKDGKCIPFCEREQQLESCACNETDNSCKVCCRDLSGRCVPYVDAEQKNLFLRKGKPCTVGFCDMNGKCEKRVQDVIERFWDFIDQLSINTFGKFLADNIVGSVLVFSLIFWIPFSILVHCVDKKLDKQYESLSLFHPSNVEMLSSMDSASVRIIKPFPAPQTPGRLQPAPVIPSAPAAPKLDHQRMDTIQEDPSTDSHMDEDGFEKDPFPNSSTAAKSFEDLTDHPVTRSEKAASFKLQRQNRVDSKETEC
Sequence of X-box-binding protein 1 (P17861 whole entry): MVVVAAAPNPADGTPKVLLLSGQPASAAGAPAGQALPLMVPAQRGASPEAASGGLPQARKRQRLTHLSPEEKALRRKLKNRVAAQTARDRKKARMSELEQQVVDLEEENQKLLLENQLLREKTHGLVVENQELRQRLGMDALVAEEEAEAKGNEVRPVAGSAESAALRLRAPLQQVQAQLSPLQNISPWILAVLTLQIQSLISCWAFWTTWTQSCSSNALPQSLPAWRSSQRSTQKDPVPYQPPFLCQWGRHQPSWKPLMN
Sequence of Neurotensin receptor type 1 (P30989 whole entry): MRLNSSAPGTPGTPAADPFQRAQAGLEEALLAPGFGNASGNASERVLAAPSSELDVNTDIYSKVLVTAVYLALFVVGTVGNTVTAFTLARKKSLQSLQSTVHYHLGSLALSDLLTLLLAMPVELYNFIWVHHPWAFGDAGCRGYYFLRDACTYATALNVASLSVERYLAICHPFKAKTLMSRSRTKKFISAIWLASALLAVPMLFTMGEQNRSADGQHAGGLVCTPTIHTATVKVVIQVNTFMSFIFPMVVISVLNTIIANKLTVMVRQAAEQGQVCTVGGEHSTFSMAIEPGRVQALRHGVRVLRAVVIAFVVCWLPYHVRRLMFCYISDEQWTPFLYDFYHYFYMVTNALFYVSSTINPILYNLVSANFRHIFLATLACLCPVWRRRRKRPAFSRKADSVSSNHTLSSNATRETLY

With `CCOc1ccc(N/C=C2/C(=O)NC(=O)N(C(C)(C)C)C2=O)cc1` as the molecule, how does the “Absolute IC50 (XBP1)” value (X-box-binding protein 1) read?
Its value is 10 µM.

Which results are given for `CCOc1cc(CNc2ccc3c(c2)OCCO3)cc(Br)c1OCC`?
IC50 [1]: > 122 µM (inactive); EC50 [2]: > 120 µM (not active); EC50 [3]: 1.58 µM (active); EC50 (BJ [4]): 2.43 µM (inconclusive); EC50 (BJ [5]): 15.6 µM (active); EC50 (BJ [6]): 1.85 µM (active); IC50 (J774.A1): 2.51 µM (active); EC50 [7]: 1.6 µM (active); EC50 [8]: 2.48 µM (active); EC50 [9]: 8.47 µM (inconclusive)

Which results are given for `CC(CCc1ccccc1)NC(=O)COC(=O)c1ccc(S(C)(=O)=O)c([N+](=O)[O-])c1` (configuration not stated)?
EC50 [10]: 9.29 µM (active); AC50 [11]: 39.4 µM (active); AC50 [12]: 9.93 µM (active); AC50 [13]: 3.34 µM (active); AC50 [14]: 10 µM (active); EC50 (Protein RecA): 3.7 µM (active)

For `CCOc1ccc(/C=C/C(=O)c2cc(Br)ccc(=O)c2O)cc1`, which IC50 [15] is on record?
The IC50 was 11.4 µM (inactive).

And the CC50 (Vero)?
Its CC50 is 7 µM (active).

What about the IC50 (NS3) of the same molecule?
Its IC50 is 4.35 µM (active).

And the IC50 (H9c2)?
The IC50 was 6.72 µM (active).

And the IC50 [16]?
Its IC50 is 17.6 µM (inactive).

For `COc1cc2c(C#N)c(N3CCCC3)nc(N)c2c(N)n1`, which IC50 (SUMO-activating enzyme [17]) is on record?
The IC50 was 5.34 µM (active).

What about the IC50 (SUMO-activating enzyme [18]) of the same molecule?
Its IC50 is 3.79 µM (active).

What about the AC50 [19] of the same molecule?
The AC50 was 9.62 µM (active).

Which results are given for `O=C(NCC(=O)N1CCN(c2ccccc2O)CC1)c1ccc2c(c1)OCO2`?
IC50 [20]: 28.2 µM (active); IC50 [21]: > 100 µM (inactive)
